Source: patent publication US20230099969A1, “TWO-PHOTON FLUORESCENT PROBE COMPOUND SELECTIVE FOR AMYLOID BETA PLAQUES AND METHOD FOR IMAGING AMYLOID BETA PLAQUES USING SAME” (Korea University Research and Business Foundation, priority 2020, published 2023)
Values after ≈ are worked out from the molar mass of the structure shown. One block for each compound: values may come before it.

Assays:
in vitro = conditions: PAMPA
Protocol: (§3) The BBB-PAMPA was conducted following the manufacturer's instructions (pION, Inc, MA, USA). […] The transmembrane side to the donor part was coated with BBB-lipid solution and 200 μL acceptor buffer was added in the upper chambers of the PAMPA sandwich plate. After incubation for 4 h at 25° C., all samples were transferred to a new U.V plate and then the U.V spectra were measured at a wavelength from 250 nm to 498 nm with a multifunctional microplate reader (Tecan, Infinite M200 Pro, San Jose, Calif., USA) and the permeability rate (Pe, 10^−6 cm/s) was determined using pION PAMPA Explorer software (ver3.8).

[1] = BBB-penetrability PAMPA assay
Protocol: as §3

Aβ fibrils = molecular target: T1, Aβ fibrils (Homo sapiens, UniProt P05067); assay: Fluorescence response in the presence of Aβ fibrils; conditions: Aβ fibrils 20 μM versus PBS containing 2% DMF
T1 construct: lyophilized Aβ1-42 peptides were dissolved in 100% HFIP; purchased GenicBio Limited (Shanghai, China)
Protocol: (§1) To measure spectra in the presence of analytes, stock solutions of ThT and IRI-1 were prepared in DMF and added to solutions of the analytes in PBS to finally obtain a solution containing 2% DMF. All emission spectra were obtained after 2 min stirring at 37° C. The excitation and emission slit widths were 3/5.
(§2) Aβ1-42 protein was prepared following a literature procedure (J. Hatai, L. Motiei, D. Margulies, J. Am. Chem. Soc. 2017, 139, 2136-2139). Briefly, lyophilized Aβ1-42 peptides were dissolved in 100% HFIP (1,1,1,3,3,3-hexafluoro-2-isopropanol) at a concentration of 2 mg mL^−1 and incubated at 25° C. for 2 h. After incubation, solution was removed under a gentle flow of argon. The peptide was dried using a lyophilizer for 40 h. AO (1 mg) was resuspended in aqueous NaOH (0.5 mL, 2 mM) and sonicated at 0° C. for 10 min. HFIP/NaOH-treated AO samples were diluted to 200 μM with PBS (0.6 mL, […], pH=7.4) and agitated using a shaker (Biofree) for 30 h. The solution was diluted to 20 μM with PBS (9.9 mL, 20 mM, pH=7.4), prior to each experiment.

[2] = Solubility of IRI-1 in PBS (absorbance at 405 nm); assay type: physicochemical; conditions: aqueous buffer, kinetic from dmso stock, PBS containing 2% DMSO, read-out: concentration up to which the dye exists as a monomer in PBS, above which soluble aggregates form
Protocol: The absorbance of IRI-1 at different concentrations in the 0-50 μM range was recorded at 405 nm in a PBS solution containing 2% DMSO. Deviation from linearity indicates the formation of aggregates.

[3] = Fluorescence in mouse brain homogenates
Protocol: as §1
Male ICR mice (10-weeks-old) from Daehan Biolink Co. Ltd. (Eumseong, Korea) were used in this experiment. The mice were accommodated at a constant temperature (23±1° C.), humidity (60±10%), and a 12 h light/dark cycle with free access to water and food. The mice were handled in accordance with the Principle of Laboratory Animal Care (NIH Publication No. 80-23; revised 1978) and the Animal Care and Use Guidelines of KyungHee University, Seoul, Korea (approval number: KHUASP(SE)-18-130). Mice were anesthetized with tribromoethanol (20 μL/g of body weight, Sigma Aldrich, USA) and then, the whole brain was removed quickly. After the washing with 0.1 M PBS, the brain tissue was excised by scissors and homogenized with a pellet pestles cordless motor (Sigma Aldrich, USA) in 2 mL of 0.1 M PBS (pH 7.4). The mixture was centrifuged at 1,000 g (Smart R17 Plus centrifuge, Hanil Scientific, Korea) for 15 min at 4° C. and the supernatant was collected. The pooled brain homogenates of 3 mice were collected and diluted to a final volume of 6 mL with PBS and used for fluorescence studies.

Photostability in DMF = assay type: physicochemical; conditions: solution in DMF, halogen lamp irradiation 35 min
Protocol: A solution of IRI-1 with an absorbance of 1.0 at the maximum absorbance wavelength was prepared in DMF. A 3100 K halogen lamp (Olympus LG-PS2; 12 V, 100 W) was used for irradiation and the absorbance was recorded at 5 min intervals for 35 min.

Aβ fibrils (Aβ1-42) = molecular target: T2, Aβ fibrils (Aβ1-42) (Homo sapiens, UniProt P05067); assay: Aβ1-42 saturation titration (fluorescence at 566 nm); assay type: binding
T2 construct: lyophilized Aβ1-42 peptides were dissolved in 100% HFIP; purchased GenicBio Limited (Shanghai, China)
Protocol: as §2
Both Aβ1-42 and IRI-1 are virtually non-fluorescent, and a simplified formula can be used where the fluorescence intensity is directly proportional to the concentration of the (Aβ1-42-IRI-1) complex only:
With F: a fluorescence proportionality factor, [IRI1]: the initial concentration of IRI-1, [Aβ]: the initial concentration of Aβ1-42, N: the number of equivalent binding sites on the Aβ fibril relative to Aβ monomer, and Kd: the dissociation constant.
The results in FIG. 1D were obtained following a multi-parameter optimization of the experimental results following the fluorescence intensity at 566 nm, using a concentration of 10 μM Aβ1-42 and incremental concentrations of IRI-1 in PBS containing 2% DMF. The slit width was set at 3/3. The best fittings were obtained for N=¼, i.e. one binding site per 4 Aβ1-42, consistent with the hypothesized high affinity cross-β-sheet binding site on the protein fibril.

Aβ plaques [4] = molecular target: T3, Aβ plaques (Homo sapiens, UniProt P05067); assay: Ex vivo two-photon microscopy imaging of brain slices; set-up: species or system 5xFAD-Tg mice; conditions: 20 μM, 2 h incubation, n=15
T3 construct: from tissue; host or cells: brain of 5xFAD-Tg mice: ex vivo slices at 11 months, in vivo frontal cortex at 10-12 months
Protocol: Brain tissues were isolated from 11-month-old 5xFAD-Tg mice. All animal protocols were approved by the Institutional Animal Care and Use Committee (IACUC) of KyungHee University, Korea (Approval number: KHUSAP (SE)-18-123). The isolated brain was immediately frozen with dry ice and horizontally sectioned by using a surgical blade (No. 10, […] safety razor Co., LTD, Japan). Sectioned brain tissues were immersed in a DMEM-buffered solution containing IBC 2 or IRI-1 (20 μM), and then incubated at 37° C. for different durations (0.5 h, 1 h and 2 h). After incubation, the brain tissues were washed with PBS (×3) and fixed in 4% paraformaldehyde solution until TPM imaging, using upright microscopy (Leica, Nussloch, Germany). […] TPM images were obtained by collecting the fluorescence from an emission channel of 580-779 nm. To compare the plaque and background signal of IBC 2 and IRI-1, TPM images analyzed by using Leica software. 15 Aβ-plaque regions as well as 15 background regions were randomly chosen for each dye at each incubation time. Bootstrap resampling (n=100,000) was performed on the 15 Aβ and background samples to estimate the population distribution of the signal to background ratios for each of the dyes at the different incubation times as well as to estimate the significance level of the difference of these population distributions.

Aβ plaques [5] = molecular target: T3, Aβ plaques; assay: In vivo two-photon microscopy imaging; set-up: species or system 5xFAD-Tg mice; depth up to which individual Aβ plaques could be detected: unit not given here
Protocol: All animal studies and maintenance were approved by the Institutional Animal Care and Use Committee (IACUC) of Seoul National University, Korea. 10-12-month-old 5xFAD (Tg6799; Jackson Lab Stock No. 006554) AD model mice were anesthetized with the mixture of Tiletamine-Zolazepam (Virbac, France) and Xylazine (Bayer Korea, Korea) via intramuscular (IM) injection (1.2 mg kg^−1) and then fixed on a customized stereotactic heating plate (37° C., Live cell instrument, Seoul, Korea). The mouse scalp was sterilized with Povidone Iodine (Firson, Korea) and then removed. A drop of Epinephrine was applied to the incision site to relieve local pain and bleeding. The periosteum was also removed in this step. When the scalp and periosteum were clearly removed and the skull dried, a small hole (3 mm diameter) was carefully made in the parietal bone with a microdrill. A 5 mm round coverslip was attached to the surgery site with Loctite 454 and dental acrylate was applied around the site. A solution of IRI-1 in 25% DMSO/PBS (5 mg kg^−1) was injected intraperitoneally (i.p.) before TPM imaging. TPM live imaging was conducted using an LSM 7 MP two-photon laser-scanning microscope (Carl Zeiss Microscopy GmbH, Germany) equipped with a Chameleon-Ultra-II laser system (Coherent, USA). An appropriately tuned laser (780-920 nm wavelength, 30 mW intensity) was applied to the imaging site transiently. Emission signals were obtained through the red channel (555-610 nm), or blue channel (485-490 nm) NDD filter set. TPM images were processed and 3D reconstructed using Volocity Software (Perkin-Elmer, Waltham, Mass., USA).

[6] = pH-dependent absorbance, pKa fitting; assay type: physicochemical; conditions: PBS (10 mM) with pH adjustment; absorbance at 405 nm, pH 2-10, PBS 10 mM
Protocol: The absorbance of IRI-1 (10 μM) was recorded in PBS (10 mM), with pH adjustment, to maintain a constant salt concentration.

[7] = Fluorescence response to potential interferents; conditions: metal ions, amino acids, thiols 20 μM in PBS, λem 566 nm
Protocol: as §1

[8] = molecular target: T4, bovine serum albumin (BSA) (Bos taurus, UniProt P02769); assay: Fluorescence in the presence of BSA; conditions: BSA 20 μM, PBS pH 7.4, 2% DMF
T4 construct: purchased
Protocol: as §1

SH-SYSY cells = assay: Cell viability MTT assay; assay type: cell-based, human; conditions: concentrations up to 50 μM, 24 h
Protocol: Cell viability was assessed by the MTT (3-4,5-dimethylthiazol-2-yl)-2,5-diphenyltetrazolium bromide) assay. SH-SYSY cells (1×10^4 per well) were treated with various concentrations of IRI-1 in a 96-well plate for 24 h at 37° C.

[9] = molecular target: T5, human serum albumin (HSA) (Homo sapiens, UniProt P02768); assay: Fluorescence in the presence of HSA; conditions: HSA 20 μM, PBS pH 7.4, 2% DMF
T5 construct: purchased
Protocol: as §1

[10] = pH 7.4, Permeability classification

T2 sequence (P05067 672-713 limits assumed): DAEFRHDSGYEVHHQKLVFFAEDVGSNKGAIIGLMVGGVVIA
T3 sequence (P05067 672-713 limits assumed): as above
T1 sequence (P05067 672-713 limits assumed): as above
T5 sequence (P02768 25-609): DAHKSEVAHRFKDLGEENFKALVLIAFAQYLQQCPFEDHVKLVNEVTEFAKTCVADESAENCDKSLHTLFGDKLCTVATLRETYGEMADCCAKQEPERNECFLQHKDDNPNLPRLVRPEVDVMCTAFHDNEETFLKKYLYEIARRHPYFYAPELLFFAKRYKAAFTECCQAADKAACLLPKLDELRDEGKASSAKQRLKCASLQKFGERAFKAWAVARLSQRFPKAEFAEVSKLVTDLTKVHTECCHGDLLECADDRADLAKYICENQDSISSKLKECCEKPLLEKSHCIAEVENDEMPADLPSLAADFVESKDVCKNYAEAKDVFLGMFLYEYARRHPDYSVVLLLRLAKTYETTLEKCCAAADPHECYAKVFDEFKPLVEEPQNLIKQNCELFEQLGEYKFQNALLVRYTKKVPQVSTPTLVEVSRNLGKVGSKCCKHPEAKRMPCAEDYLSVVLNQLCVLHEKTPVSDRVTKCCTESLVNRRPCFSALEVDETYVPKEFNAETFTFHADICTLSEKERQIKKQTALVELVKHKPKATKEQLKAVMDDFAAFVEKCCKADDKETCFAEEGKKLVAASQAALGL
T4 sequence (P02769 25-607): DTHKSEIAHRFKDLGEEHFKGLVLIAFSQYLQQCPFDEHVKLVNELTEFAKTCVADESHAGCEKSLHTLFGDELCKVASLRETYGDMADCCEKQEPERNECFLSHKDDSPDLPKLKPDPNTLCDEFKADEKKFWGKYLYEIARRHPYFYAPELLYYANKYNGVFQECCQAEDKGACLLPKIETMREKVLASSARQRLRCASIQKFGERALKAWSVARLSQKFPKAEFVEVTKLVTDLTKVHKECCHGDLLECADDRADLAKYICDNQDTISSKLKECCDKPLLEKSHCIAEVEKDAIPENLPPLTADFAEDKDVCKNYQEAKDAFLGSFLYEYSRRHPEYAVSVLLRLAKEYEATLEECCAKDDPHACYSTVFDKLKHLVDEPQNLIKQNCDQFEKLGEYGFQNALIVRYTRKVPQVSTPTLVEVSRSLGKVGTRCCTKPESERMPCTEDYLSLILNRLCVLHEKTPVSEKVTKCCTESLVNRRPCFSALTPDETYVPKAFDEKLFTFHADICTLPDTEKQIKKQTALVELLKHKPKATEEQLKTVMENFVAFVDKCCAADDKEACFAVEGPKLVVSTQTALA

Papp at 4 h (in vitro; pH 7.4, Pe): 39.5 ± 5.59 ×10⁻⁶ cm/s
Papp at 4 h (in vitro; [10]): > 0.4 ×10⁻⁶ cm/s
Compound: CC(=O)[C@H]1CC[C@H]2[C@@H]3CCC4=CC(=O)CC[C@]4(C)[C@H]3CC[C@]12C [Progesterone, reference compound]

Permeability classification [1]: Not permeable
Pe ([1]; pH 7.4, 4 h at 25° C., mean and standard deviation, n = 3): 0^c 10^−6 cm/s
fluorescence enhancement in the presence of Aβ fibrils (Aβ fibrils): 20 fold
Compound: Cc1ccc2c(c1)sc(-c1ccc(N(C)C)cc1)[n+]2C.[Cl-] [Thioflavin T]

solubility [2]: 4.7 µM (≈ 1.36 µg/mL)
Kd (Aβ fibrils (Aβ1-42); Aβ fibrils 10 μM, IRI-1 0-50 μM, PBS containing 2% DMF, nonlinear fitting, read-out: binding affinity toward Aβ fibrils, Kd): 374 ± 115 nM
N, number of equivalent binding sites on the Aβ fibril relative to Aβ monomer (Aβ fibrils (Aβ1-42); best fitting, one binding site per 4 Aβ1-42): ¼
binding affinity relative to that previously reported for ThT (Aβ fibrils (Aβ1-42); versus literature value for ThT): two- to three-folds stronger
signal-to-background ratio, elevation compared to IBC-2 (Aβ plaques [4]): approximately 3.75 fold
fluorescence enhancement in the presence of Aβ fibrils (Aβ fibrils): 167 fold
BBB penetration (Aβ plaques [5]; 5 mg kg^−1 i.p.): good BBB penetration
time to full saturation of fluorescence enhancement of Aβ plaques in the frontal cortex (Aβ plaques [5]; 5 mg kg^−1 i.p., excitation 920 nm): approximately 40 min
depth up to which individual Aβ plaques could be detected (Aβ plaques [5]; 3D two-photon imaging, 5 mg kg^−1 i.p.): ≤ 172
overlap of images with co-administered MeO-X04 (Aβ plaques [5]; co-administration, frontal cortex): near perfect overlap
pKa [6]: 4.22 ± 0.12
Papp at 4 h (in vitro; pH 7.4, Pe): 0.562 ± 0.053 ×10⁻⁶ cm/s
Papp at 4 h (in vitro; [10]): > 0.4 ×10⁻⁶ cm/s
Compound: CN(C)c1ccc(-c2ccc3cc(C#N)c(=N)oc3c2)cc1 [IRI-1]
fluorescence enhancement in the presence of mouse brain homogenates [3]: only relatively weak fluorescence enhancement
resistance to photobleaching (Photostability in DMF): relatively high resistance to photobleaching
fluorescent response to potential interferants [7]: no or negligible fluorescence enhancement
fluorescence enhancement in the presence of BSA [8]: only relatively weak fluorescence enhancement
cytotoxicity (SH-SYSY cells): no significant toxicity
fluorescence enhancement in the presence of HSA [9]: only relatively weak fluorescence enhancement
